Measurements taken from patent EP2951180B1, “2,6,7,8 SUBSTITUTED PURINES AS HDM2 INHIBITORS” (Merck Sharp & Dohme Corp., priority 2013, dated 2014).

Molecular target: T1, HDM2 (Homo sapiens, UniProt Q00987)
T1 construct: Thioredoxin (N); made in house; host or cells: E. coli strain BL21(DE3)Rosetta
Assay: HDM2 FRET assay (inhibition of binding of FITC labeled p53-pocket peptide to HDM2)
Conditions: 0.5 nM HDM2 (residues 17 to 125), 3nM peptide, two hour incubation at room temperature; read-out: FRET IC50
In short: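 Final: 0.5 nM His-HDM2, 3 nM FITC peptide, 0.25 nM Tb anti-His Ab; PBS, 0.01% BSA, 0.01% Tween-20; 0.1% DMSO.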

T1 sequence (Q00987 17-125): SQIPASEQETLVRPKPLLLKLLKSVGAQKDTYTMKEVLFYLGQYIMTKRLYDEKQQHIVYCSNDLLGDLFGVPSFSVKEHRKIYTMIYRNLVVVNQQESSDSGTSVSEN

With `C[C@H]1CC[C@H](Cn2c(N3CCO[C@@H]4CCC[C@H]43)nc3nc(-c4noc(=O)[nH]4)nc(-c4cncc(Cl)c4)c32)CC1` [Example 16.87, 3-{6-(5-chloropyridin-3-yl)-8-[(4aR,7aR)-hexahydrocyclopenta [b][1,4]oxazin-4(4aH)-yl]-7-[(trans-4-methylcyclohexyl)met52hyl]-7H-purin-2-yl}-1,2,4-oxadiazol-5(4H)-one] the IC50 was 1.56 nM.
For `C[C@H]1CC[C@H](Cn2c(N3CCOCC34CC4)nc3nc(-c4n[nH]c(=O)o4)nc(-c4cccc(Cl)c4)c32)CC1` [Example 16.88, 5-[6-(3-chlorophenyl)-7-[(trans-4-methylcyclohexyl)methyl]-8-(7-oxa-4-azaspiro[2.5]oct-4-yl)-7H-purin-2-yl]-1,3,4-oxadiazol-2(3H)-one], the IC50 was 39.1 nM.
For `C[C@H]1CC[C@H](Cn2c(N3CCOCC34CCC4)nc3nc(-c4n[nH]c(=O)o4)nc(-c4cccc(Cl)c4)c32)CC1` [Example 16.89, 5-[6-(3-chlorophenyl)-7-[(trans-4-methylcyclohexyl)methyl]-8-(8-oxa-5-azaspiro[3.5]non-5-yl)-7H-purin-2-yl]-1,3,4-oxadiazol-2(3H)-one], the IC50 was 25 nM.
Compound `C[C@H]1CC[C@H](Cn2c(N3CCO[C@@H]4CCC[C@H]43)nc3nc(-c4n[nH]c(=O)o4)nc(-c4cncc(Cl)c4)c32)CC1` [Example 16.90, 5-{6-(5-chloropyridin-3-yl)-8-[(4aR,7aR)-hexahydrocyclopenta [b][1,4]oxazin-4(4aH)-yl]-7-[(trans-4-methylcyclohexyl)methyl]-7H-purin-2-yl}-1,3,4-oxadiazol-2(3H)-one] has an IC50 of 2.28 nM.
`C[C@H]1CC[C@H](Cn2c(N3CCO[C@H]4CCC[C@@H]43)nc3nc(-c4n[nH]c(=O)o4)nc(-c4cncc(Cl)c4)c32)CC1` [Example 16.91, 5-{6-(5-chloropyridin-3-yl)-8-[(4aS,7aS)-hexahydrocyclopenta [b][1,4]oxazin-4(4aH)-yl]-7-[(trans-4-methylcyclohexyl)methyl]-7H-purin-2-yl}-1,3,4-oxadiazol-2(3H)-one] showed an IC50 of 403 nM.
With `C[C@H]1CC[C@H](Cn2c(N3CCOC[C@H]3c3ccccc3F)nc3nc(-c4noc(=O)[nH]4)nc(-c4cncc(Cl)c4)c32)CC1` [Example 16.92, 3-{6-(5-chloropyridin-3-yl)-8-[(3R)-3-(2-fluorophenyl)morpholin-4-yl]-7-[(trans-4-methylcyclohexyl)methyl]-7H-purin-2-yl}-1,2,4-oxadiazol-5(4H)-one] the IC50 was 0.585 nM.
Compound `C[C@H]1CC[C@H](Cn2c(N3CCOC[C@H]3c3ccc(F)cc3)nc3nc(-c4noc(=O)[nH]4)nc(-c4cncc(Cl)c4)c32)CC1` [Example 16.93, 3-{6-(5-chloropyridin-3-yl)-8-[(3R)-3-(4-fluorophenyl)morpholin-4-yl]-7-[(trans-4-methylcyclohexyl)methyl]-7H-purin-2-yl}-1,2,4-oxadiazol-5(4H)-one] has an IC50 of 1.37 nM.
`C[C@H]1CC[C@H](Cn2c(N3CCOC[C@H]3c3ccc(F)cc3)nc3nc(-c4n[nH]c(=O)o4)nc(-c4cncc(Cl)c4)c32)CC1` [Example 16.94, 5-{6-(5-chloropyridin-3-yl)-8-[(3R)-3-(4-fluorophenyl)morpholin-4-yl]-7-[(trans-4-methylcyclohexyl)methyl]-7H-purin-2-yl}-1,3,4-oxadiazol-2(3H)-one] was tested, and the IC50 was 1.98 nM.
With `C[C@H]1CC[C@H](Cn2c(N3CCOC[C@H]3c3ccccc3F)nc3nc(-c4n[nH]c(=O)o4)nc(-c4cncc(Cl)c4)c32)CC1` [Example 16.95, 5-{6-(5-chloropyridin-3-yl)-8-[(3R)-3-(2-fluorophenyl)morpholin-4-yl]-7-[(trans-4-methylcyclohexyl)methyl]-7H-purin-2-yl}-1,3,4-oxadiazol-2(3H)-one] the IC50 was 0.494 nM.
Compound `C[C@H]1CC[C@H](Cn2c(N3CCOC[C@H]3c3ccncc3)nc3nc(-c4noc(=O)[nH]4)nc(-c4cccc(Cl)c4)c32)CC1` [Example 16.96, 3-{6-(3-chlorophenyl)-7-[(trans-4-methylcyclohexyl)methyl]-8-[(3R)-3-pyridin-4-ylmorpholin-4-yl]-7H-purin-2-yl}-1,2,4-oxadiazol-5(4H)-one] has an IC50 of 3.29 nM.
With `C[C@H]1CC[C@H](Cn2c(N3CCOC[C@H]3c3ccncc3)nc3nc(-c4n[nH]c(=O)o4)nc(-c4cccc(Cl)c4)c32)CC1` [Example 16.97, 5-{6-(3-chlorophenyl)-7-[(trans-4-methylcyclohexyl)methyl]-8-[(3R)-3-pyridin-4-ylmorpholin-4-yl]-7H-purin-2-yl}-1,3,4-oxadiazol-2(3H)-one] the IC50 was 3.81 nM.
Work on `C[C@H]1CC[C@H](Cn2c(N3CCOC[C@H]3c3ccccn3)nc3nc(-c4noc(=O)[nH]4)nc(-c4cccc(Cl)c4)c32)CC1` [Example 16.98, 3-{6-(3-chlorophenyl)-7-[(trans-4-methylcyclohexyl)methyl]-8-[(3R)-3-pyridin-2-ylmorpholin-4-yl]-7H-purin-2-yl}-1,2,4-oxadiazol-5(4H)-one] yielded an IC50 of 1.61 nM.
Work on `C[C@H]1CC[C@H](Cn2c(N3CCOC[C@H]3c3ccccn3)nc3nc(-c4n[nH]c(=O)o4)nc(-c4cccc(Cl)c4)c32)CC1` [Example 16.99, 5-{6-(3-chlorophenyl)-7-[(trans-4-methylcyclohexyl)methyl]-8-[(3R)-3-pyridin-2-ylmorpholin-4-yl]-7H-purin-2-yl}-1,3,4-oxadiazol-2(3H)-one] yielded an IC50 of 1.98 nM.
In the case of `C[C@@H]1OCCN(c2nc3nc(-c4n[nH]c(=O)o4)nc(-c4cncc(Cl)c4)c3n2C[C@H]2CC[C@H](C)CC2)[C@@H]1C` [Example 16.103, 5-{6-(5-chloropyridin-3-yl)-8-[(2S,3R)-2,3-dimethylmorpholin-4-yl]-7-[(trans-4-methylcyclohexyl)methyl]-7H-purin-2-yl}-1,3,4-oxadiazol-2(3H)-one], the IC50 is reported as 140 nM.
Work on `C[C@H]1CC[C@H](Cn2c(N3CCC[C@H]3CF)nc3nc(-c4n[nH]c(=O)o4)nc(-c4cncc(Cl)c4)c32)CC1` [Example 16.104, 5-{6-(5-chloropyridin-3-yl)-8-[(2S)-2-(fluoromethyl)pyrrolidin-1-yl]-7-[(trans-4-methylcyclohexyl)methyl]-7H-purin-2-yl}-1,3,4-oxadiazol-2(3H)-one] yielded an IC50 of 3.91 nM.
For `C[C@@H]1COC[C@@H](C)N1c1nc2nc(-c3n[nH]c(=O)o3)nc(-c3cncc(Cl)c3)c2n1C[C@H]1CC[C@H](C)CC1` [Example 16.105, 5-{6-(5-chloropyridin-3-yl)-8-[(3R,5R)-3,5-dimethylmorpholin-4-yl]-7-[(trans-4-methylcyclohexyl)methyl]-7H-purin-2-yl}-1,3,4-oxadiazol-2(3H)-one], the IC50 was 11 nM.
In the case of `C[C@H]1CC[C@H](Cn2c(N3CCC[C@H]3C(F)(F)F)nc3nc(-c4n[nH]c(=O)o4)nc(-c4cncc(Cl)c4)c32)CC1` [Example 16.106, 5-{6-(5-chloropyridin-3-yl)-7-[(trans-4-methylcyclohexyl)methyl]-8-[(2S)-2-(trifluoromethyl)pyrrolidin-1-yl]-7H-purin-2-yl} -1,3,4-oxadiazol-2(3H)-one], the IC50 is reported as 0.825 nM.
Compound `C[C@H]1CC[C@H](Cn2c(N3CCOC[C@H]3c3ccccc3)nc3nc(-c4noc(=O)[nH]4)nc(-c4cc(Cl)nc(Cl)c4)c32)CC1` [Example 16.107, 3-{6-(2,6-dichloropyridin-4-yl)-7-[(trans-4-methylcyclohexyl)methyl]-8-[(3R)-3-phenylmorpholin-4-yl]-7H-purin-2-yl}-1,2,4-oxadiazol-5(4H)-one] has an IC50 of 1.66 nM.
